Source: patent US20250368633A1, “AZEPINE FUSED RING COMPOUND AS RIPK1 INHIBITOR AND USE THEREOF” (ARTIVILA BIOPHARMA, priority 2022, published 2025)

What was measured:
[1] = test system: U937 cells; assay: EC50 of necroptosis inhibition in U937 cells (TSZ-induced, CellTiter-Glo); format: cell-based; settings: Homo sapiens, U-937; TSZ (hTNF-α, SM-164, Z-VAD-FMK) 20 hours; 10 concentration points; read-out: EC50 intervals of necroptosis inhibition in U937 cells
Method in brief: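 U937 cells pretreated 15 min with compound (10-point, 1:3 series), then necroptosis induced by TSZ (hTNF-α, SM-164, Z-VAD-FMK) for 20 h at 37 °C. Viability measured as ATP by CellTiter-Glo luminescence; inhibition normalised to untreated and TSZ-only wells, EC50 from four-parameter fit.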

[2] = target: T1, RIPK1 kinase (Homo sapiens, UniProt Q13546); assay: In vitro RIPK1 kinase activity assay (ADP-Glo), inhibition by compounds at 1 μM; format: biochemical; settings: compound 1 μM; ATP 10 μM; MBP substrate 100 μg/mL; read-out: RIPK1 kinase activity inhibition rate range
T1 construct: purchased Promega VA7593
T1 sequence (Q13546 1-671): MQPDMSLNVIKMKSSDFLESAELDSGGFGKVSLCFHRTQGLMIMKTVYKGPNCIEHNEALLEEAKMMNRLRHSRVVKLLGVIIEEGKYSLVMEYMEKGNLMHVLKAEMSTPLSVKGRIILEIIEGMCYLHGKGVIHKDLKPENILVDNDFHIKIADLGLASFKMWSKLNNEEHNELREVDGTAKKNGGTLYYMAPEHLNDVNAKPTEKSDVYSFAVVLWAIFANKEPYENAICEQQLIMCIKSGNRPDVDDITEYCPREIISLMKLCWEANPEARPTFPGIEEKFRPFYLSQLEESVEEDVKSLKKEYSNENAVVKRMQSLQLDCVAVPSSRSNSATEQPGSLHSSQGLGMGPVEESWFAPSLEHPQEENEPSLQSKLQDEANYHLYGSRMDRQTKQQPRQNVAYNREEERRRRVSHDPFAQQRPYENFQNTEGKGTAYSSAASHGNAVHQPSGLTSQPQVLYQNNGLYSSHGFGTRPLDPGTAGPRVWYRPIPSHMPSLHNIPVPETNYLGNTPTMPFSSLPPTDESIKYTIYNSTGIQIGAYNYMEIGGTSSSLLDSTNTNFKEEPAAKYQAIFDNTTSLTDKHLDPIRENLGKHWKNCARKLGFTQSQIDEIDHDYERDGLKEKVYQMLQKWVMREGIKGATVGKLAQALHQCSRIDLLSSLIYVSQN
Method in brief: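 Compound and RIPK1 were preincubated 15 min at room temperature, then reacted 1 h with 10 μM ATP and 100 μg/mL MBP substrate in kinase buffer D. ADP formed was measured by ADP-Glo luminescence and converted to percent inhibition of kinase activity.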

SMILES	EC50 [1] [nM]	inhibition at 1 µM [2] [%]
COC(=O)C1(C#Cc2ccc3c(c2)N(C)C(=O)[C@@H](NC(=O)C(=O)NCCc2ccccc2)CO3)CC1 [Example 96, methyl (S)-1-((5-methyl-4-oxo-3-(2-oxo-2-(phenethylamino)acetamido)-2,3,4,5-tetrahydrobenzo[b][1,4]oxazepin-7-yl)ethynyl)cyclopropane-1-carboxylate]	< 100	≥ 75
CN1C(=O)[C@@H](NC(=O)C(=O)NCCc2cccs2)COc2ccccc21 [Example 97, (S)—N^1-(5-methyl-4-oxo-2,3,4,5-tetrahydrobenzo[b][1,4]oxazepin-3-yl)-N^2-(2-(thiophen-2-yl)ethyl)oxalamide]	100 to 500	≥ 75
CN1C(=O)[C@@H](NC(=O)C(=O)NCCc2ccsc2)COc2ccccc21 [Example 98, (S)—N-(5-methyl-4-oxo-2,3,4,5-tetrahydrobenzo[b][1,4]oxazepin-3-yl)-N^2-(2-(thiophen-3-yl)ethyl)oxalamide]	100 to 500	≥ 75
